Where two headings read alike, the source gives them in different places.
Tested on: c1498 murine AML (Acute Myeloid Leukemia) cells
Test: Survival of FACS-sorted phosphatidylserine-positive AML cells after cytarabine treatment
Assay type: cell-based
Settings: Mus musculus, 1 μM cytarabine for 24 hrs, live cell number estimated from growth rates
Description: FIG. 1A-FIG. 1C show the survival of phosphatidylserine-expressing AML cells. […] The rectangles indicate the sorted cells. […] About 1000 each of the sorted cells were placed into multi-well plates. When the cells reached sufficient numbers, they were counted at different time points to measure their growth rates. The growth rates were then used to estimate the initial live cell numbers. The following formula was used to calculate the minimal initial live cell numbers: Minimal initial cell number=Total cell population/[…] (days to reach the current cell number).
To determine whether cells expressing high-level of PS expression on the cell surface were destined to die, the viability of c1498 murine AML (Acute Myeloid Leukemia) cells treated with cytarabine (part of a classical chemotherapy regimen for human AML) was examined.
Specifically, whether PS-expressing acute myelocytic leukemia (AML) cells survived was examined. FACS was used to identify and sort c1498 cells treated with 1 μM cytarabine (for 24 hrs) and with high PS-expression. The sorted cells were then seeded into 6-well dishes and the ability to survive and proliferate was measured. FIG. 1A-FIG. 1B). […]

## Nc1ccn([C@@H]2O[C@H](CO)[C@@H](O)[C@@H]2O)c(=O)n1 [cytarabine]
FACS-sorted PS+7AAD+ (late apoptotic) cells, read-out: proportion of cytarabine-treated PS+7AAD+ c1498 cells that remained viable and could proliferate
  viability at 1 µM: ~8%
FACS-sorted PS+7AAD- (early apoptotic) cells, read-out: proportion of cytarabine-treated PS+7AAD- c1498 cells that remained viable and could proliferate
  viability at 1 µM: ~25%
